The values below come from ChEMBL document CHEMBL3351921, “Structure-activity relationships (SAR) and structure-kinetic relationships (SKR) of pyrrolopiperidinone acetic acids as CRTh2 antagonists” (Bioorg Med Chem Lett, 2014).

A value given as a limit tells only on which side of the number the result lay.

In series [1] the target is T1, Prostaglandin D2 receptor 2 (Homo sapiens, UniProt Q9Y5Y4).
T1 sequence (Q9Y5Y4 whole entry): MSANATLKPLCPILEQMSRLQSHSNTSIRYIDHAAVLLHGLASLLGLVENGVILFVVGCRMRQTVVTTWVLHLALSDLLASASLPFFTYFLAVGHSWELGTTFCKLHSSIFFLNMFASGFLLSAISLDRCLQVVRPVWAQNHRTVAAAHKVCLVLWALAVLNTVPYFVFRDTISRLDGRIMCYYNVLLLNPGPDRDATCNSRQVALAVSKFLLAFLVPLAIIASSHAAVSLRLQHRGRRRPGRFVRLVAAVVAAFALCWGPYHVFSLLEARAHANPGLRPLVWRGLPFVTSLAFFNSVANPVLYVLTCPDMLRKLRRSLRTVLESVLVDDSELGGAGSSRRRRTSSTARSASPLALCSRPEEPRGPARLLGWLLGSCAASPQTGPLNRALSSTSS
The series is described as follows: Antagonist activity at CRTh2 (unknown origin) stably expressed in PGD2-stimulated CHO.K1 cells preincubated for 1 hr by radio-labelled [35S]-GTPgammaS binding assay. The series is classed as functional, cell-based. A general note: GTPγS resists hydrolysis and so accumulates on activated G proteins.

Series [2] addresses T2, Prostaglandin D2 receptor 2 (Homo sapiens) (UniProt Q9Y5Y4).
T2 sequence (whole entry): T1 sequence (Q9Y5Y4 whole entry)
The conditions noted are these: CHO.K1.
Description: Antagonist activity at CRTh2 (unknown origin) stably expressed in PGD2-stimulated CHO.K1 cells assessed as dissociation half-life at 5 to 10 times IC50 after 2 hrs by radio-labelled [35S]-GTPgammaS binding assay

For series [3], the target named is T3, Prostaglandin D2 receptor (Homo sapiens) (UniProt Q13258).
T3 sequence (whole entry): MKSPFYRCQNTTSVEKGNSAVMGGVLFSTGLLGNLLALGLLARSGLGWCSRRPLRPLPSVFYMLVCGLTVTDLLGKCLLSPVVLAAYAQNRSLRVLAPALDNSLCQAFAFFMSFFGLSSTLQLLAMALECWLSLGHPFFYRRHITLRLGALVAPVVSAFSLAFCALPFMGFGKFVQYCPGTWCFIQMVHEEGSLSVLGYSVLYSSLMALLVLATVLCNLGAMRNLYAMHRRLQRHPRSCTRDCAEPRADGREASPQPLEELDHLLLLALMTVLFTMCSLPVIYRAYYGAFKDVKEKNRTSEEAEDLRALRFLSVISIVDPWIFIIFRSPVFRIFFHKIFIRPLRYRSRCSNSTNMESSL
Briefly: Inhibition of at prostanoid DP1 receptor (unknown origin) at 10 uM.

Series [4] has as its target T4, Thromboxane A2 receptor (Homo sapiens) (UniProt P21731).
T4 sequence (whole entry): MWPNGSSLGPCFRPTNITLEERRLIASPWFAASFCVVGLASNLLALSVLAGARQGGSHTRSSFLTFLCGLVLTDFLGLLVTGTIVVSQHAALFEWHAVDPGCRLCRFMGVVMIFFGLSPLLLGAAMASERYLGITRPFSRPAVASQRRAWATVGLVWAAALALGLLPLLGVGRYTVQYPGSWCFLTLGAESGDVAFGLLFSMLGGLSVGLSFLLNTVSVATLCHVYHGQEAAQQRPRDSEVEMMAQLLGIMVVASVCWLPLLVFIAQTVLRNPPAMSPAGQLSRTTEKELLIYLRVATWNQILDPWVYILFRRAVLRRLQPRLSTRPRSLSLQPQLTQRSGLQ
The series is described as follows: Inhibition of at prostanoid TP receptor (unknown origin) at 10 uM.

Series [5] in a line: Dissociation constant, pKa of the compound by potentiometric method. The series is classed as physicochemical.
Series [6] in a line: Apparent permeability across apical to basolateral side of human Caco2 cells at pH 7.4. The series is classed as ADME, cell-based. Particulars: Caco-2, pH 7.4. Background: Passage across Caco-2 layers is used to estimate intestinal permeability.

A word on the IC50: it is the midpoint of a concentration-inhibition curve. A higher IC50 goes with weaker potency in that assay. Regarding `Cc1c(Cc2ccccc2S(=O)(=O)N(C)Cc2ccccc2)c2c(n1CC(=O)O)CCNC2=O`, the IC50 in series [1] amounted to 26 nM. This molecule also yielded a T1/2 in series [2] of 0.6 h.

Regarding `Cc1c(Cc2ccccc2S(=O)(=O)c2ccccc2)c2c(Cl)nccc2n1CC(=O)O`, in series [1], the IC50 came out at 16 nM. The molecule also yielded a T1/2 in series [2] of 2 h.

What is called inhibition is the percentage by which the read-out fell short of the control. Read a high inhibition as a response far below the control. By pKa is commonly meant the pH at which an ionisable group is half protonated. Low readings indicate a stronger acid or weaker base, high ones a weaker acid or stronger base. For the molecule `Cc1c(Cc2ccccc2S(=O)(=O)c2ccccc2)c2c(n1CC(=O)O)CCN(Cc1ccccc1)C2=O`, the inhibition in series [3] and in series [4] was under 30% each time. In series [2], this molecule displayed a T1/2 of 6.7 h. This molecule had a pKa in series [5] of 3.3.

For the molecule `COc1ccc(S(=O)(=O)c2ccccc2)c(Cc2c3c(n(CC(=O)O)c2C)CCNC3=O)c1`, the inhibition in series [3] and in series [4] was under 30% in each case. This molecule returned a T1/2 in series [2] of 4.2 h.

In series [2], `Cc1c(Cc2cc(F)ccc2S(=O)(=O)c2ccccc2)c2c(n1CC(=O)O)CCNC2=O` had a T1/2 of 1.7 h.

The Papp A→B is how fast a substance crosses the layer from the apical side. `Cc1c(Cc2ccccc2S(=O)(=O)c2ccccc2)c2c(n1CC(=O)O)CCN(C(C)C(F)(F)F)C2=O` (stereo unspecified) returned an IC50 in series [1] of 6 nM. The Papp A→B in series [6] came out at 0.6 ×10⁻⁶ cm/s. The molecule also displayed a T1/2 in series [2] of 2.1 h.

The molecule `COc1cccc(Cc2c3c(n(CC(=O)O)c2C)CCNC3=O)c1S(=O)(=O)c1ccccc1` registered a T1/2 in series [2] of 0.4 h.

For `Cc1c(Cc2ccc(C(=O)O)cc2S(=O)(=O)c2ccccc2)c2c(n1CC(=O)O)CCNC2=O`, the IC50 in series [1] came to 19 nM.

For the molecule `Cc1c(Cc2ccccc2Cn2ccnn2)c2c(n1CC(=O)O)CCNC2=O`, the IC50 in series [1] came out at 800 nM.

On to `CNC(=O)c1cccc(S(=O)(=O)c2ccccc2Cc2c3c(n(CC(=O)O)c2C)CCNC3=O)c1`, for which the IC50 in series [1] came out at 240 nM.

Turning to `Cc1c(Cc2ccccc2S(=O)(=O)c2ccc(OC(F)(F)F)cc2)c2c(n1CC(=O)O)CCNC2=O`, the IC50 in series [1] came to 6.6 nM. In addition, the T1/2 in series [2] stood at 1.3 h.

Regarding `Cc1c(Cc2ccccc2S(=O)(=O)c2cccc(F)c2)c2c(n1CC(=O)O)CCNC2=O`, the inhibition in series [3] and in series [4] was under 30% in each case. Also, the T1/2 in series [2] is 0.8 h.

In turn, `COC(=O)c1ccc(Cc2c3c(n(CC(=O)O)c2C)CCNC3=O)c(S(=O)(=O)c2ccccc2)c1` came in with a T1/2 in series [2] of 1.8 h.

Regarding `Cc1c(Cc2cc(Br)ccc2S(=O)(=O)c2ccccc2)c2c(n1CC(=O)O)CCNC2=O`, the T1/2 in series [2] is 5.7 h.

In series [1], `COc1cccc(S(=O)(=O)c2ccccc2)c1Cc1c2c(n(CC(=O)O)c1C)CCNC2=O` had an IC50 of 4500 nM. This counts as single-digit micromolar.

For the molecule `Cc1c(Cc2ccccc2S(=O)(=O)c2ccccc2)c2c(=O)n(C)ccc2n1CC(=O)O`, the inhibition in series [3] and in series [4] was under 30% each time. Further, the Papp A→B in series [6] amounted to 0.1 ×10⁻⁶ cm/s. The molecule further had a T1/2 in series [2] of 8 h.

In turn, `Cc1c(Cc2ccccc2S(=O)(=O)c2ccc(Cl)cc2)c2c(n1CC(=O)O)CCNC2=O` returned an IC50 in series [1] of 8.5 nM. Further, in series [2], the T1/2 turned out to be 1.2 h.

In turn, `Cc1c(Cc2ccccc2S(=O)(=O)c2ccccc2)c2c(=O)n(C(F)F)ccc2n1CC(=O)O` returned an IC50 in series [1] of 2.2 nM. Further, the inhibition in series [3] and in series [4] was under 30% each time. The Papp A→B in series [6] was 0.4 ×10⁻⁶ cm/s. The T1/2 in series [2] turned out to be 21 h.

`CCS(=O)(=O)c1ccccc1Cc1c2c(n(CC(=O)O)c1C)CCNC2=O` gave an IC50 in series [1] of 550 nM.

The molecule `Cc1c(Cc2ccccc2C(O)c2ccccc2)c2c(n1CC(=O)O)CCNC2=O` (stereo unspecified) displayed an IC50 in series [1] of 32 nM. In series [2], this molecule gave a T1/2 of 0.4 h. In series [5], this molecule came in with a pKa of 3.1.

In the case of `Cc1c(Cc2ccc(S(=O)(=O)c3ccccc3)cc2)c2c(n1CC(=O)O)CCNC2=O`, the IC50 in series [1] turned out to be 170 nM.

On to `Cc1c(Cc2ccccc2S(=O)(=O)c2ccccc2F)c2c(n1CC(=O)O)CCNC2=O`, for which, in series [2], the T1/2 amounted to 1.1 h.

With `CNC(=O)c1ccc(Cc2c3c(n(CC(=O)O)c2C)CCNC3=O)c(S(=O)(=O)c2ccccc2)c1`, the IC50 in series [1] was found to be 10 nM. Moreover, the T1/2 in series [2] was 4.6 h.

In the case of `Cc1c(Cc2ccccc2S(=O)(=O)c2ccccc2)c2c(n1CC(=O)O)CCN(C(C)C)C2=O`, the IC50 in series [1] worked out at 9 nM. The molecule further came in with a T1/2 in series [2] of 2.6 h. Further, in series [5], the pKa worked out at 2.9.

For `Cc1c(Cc2ccccc2S(=O)(=O)c2ccccc2)c2c(n1[C@@H](C)C(=O)O)CCNC2=O`, the IC50 in series [1] was found to be 91 nM.

As for `Cc1c(Cc2ccccc2C(=O)c2ccccc2)c2c(n1CC(=O)O)CCNC2=O`, in series [1], the IC50 amounted to 810 nM.

Regarding `Cc1c(Cc2ccccc2Oc2ccccc2)c2c(n1CC(=O)O)CCNC2=O`, the IC50 in series [1] is 530 nM.

In the case of `Cc1c(Cc2ccccc2Cc2ccccc2)c2c(n1CC(=O)O)CCNC2=O`, in series [1], the IC50 was 120 nM. Also, the Papp A→B in series [6] turned out to be 0.2 ×10⁻⁶ cm/s.

Take `Cc1c(Cc2ccccc2S(=O)(=O)c2ccccc2)c2c(n1CC(=O)O)CCN(C)C2=O`: the IC50 in series [1] was found to be 7 nM. For the same molecule, the T1/2 in series [2] was determined as 5.3 h. The molecule also came in with a pKa in series [5] of 2.9.

Take `Cc1c(Cc2ccc(S(=O)(=O)Cc3ccccc3)cc2)c2c(n1CC(=O)O)CCNC2=O`: in series [1], the IC50 is 3 nM. For the same molecule, in series [2], the T1/2 was 0.9 h.

The molecule `COc1ccc(S(=O)(=O)c2ccc(F)cc2)c(Cc2c3c(n(CC(=O)O)c2C)CC(C)(C)NC3=O)c1` had an IC50 in series [1] of 5 nM. Moreover, in series [2], the T1/2 was 20 h.

In the case of `Cc1c(Cc2ccccc2S(=O)(=O)c2ccccc2)c2c(n1[C@H](C)C(=O)O)CCNC2=O`, the IC50 in series [1] was found to be 430 nM.

The molecule `Cc1c(Cc2ccccc2S(=O)(=O)C2CCCCC2)c2c(n1CC(=O)O)CCNC2=O` gave an IC50 in series [1] of 28 nM.

As for `Cc1c(Cc2ccccc2S(=O)(=O)N2CCOCC2)c2c(n1CC(=O)O)CCNC2=O`, the IC50 in series [1] came out at 22 nM. For the same molecule, the T1/2 in series [2] was 0.6 h.

On to `Cc1c(Cc2ccccc2S(=O)(=O)c2cccc(Cl)c2)c2c(n1CC(=O)O)CCNC2=O`, for which the inhibition in series [3] and in series [4] was under 30% throughout. Further, the T1/2 in series [2] stood at 1.2 h. This molecule gave a pKa in series [5] of 3.1.

`COc1ccc(S(=O)(=O)c2ccccc2Cc2c3c(n(CC(=O)O)c2C)CCNC3=O)cc1` returned a T1/2 in series [2] of 3.2 h.

Take `Cc1c(Cc2ccccc2S(=O)(=O)c2ccccc2)c2c(=O)[nH]ccc2n1CC(=O)O`: the Papp A→B in series [6] was determined as 0.1 ×10⁻⁶ cm/s. In series [2], the T1/2 stood at 1.3 h.

`CCN(Cc1ccccc1Cc1c2c(n(CC(=O)O)c1C)CCNC2=O)C(=O)C1CC1` registered an IC50 in series [1] of 240 nM.

In series [1], `Cc1c(Cc2ccc(S(C)(=O)=O)cc2)c2c(n1CC(=O)O)CCNC2=O` returned an IC50 of 900 nM.

Consider `Cc1c(Cc2ccc(C(F)(F)F)cc2S(=O)(=O)c2ccccc2)c2c(n1CC(=O)O)CCNC2=O`, for which the inhibition in series [3] and in series [4] was under 30% each time. Also, the T1/2 in series [2] amounted to 0.9 h.

Regarding `Cc1c(Cc2cc(C#N)ccc2S(=O)(=O)c2ccccc2)c2c(n1CC(=O)O)CCNC2=O`, the IC50 in series [1] came to 28 nM. Moreover, the T1/2 in series [2] was 0.6 h.

Molecule `Cc1c(Cc2ccccc2S(=O)(=O)c2ccc(F)cc2)c2c(n1CC(=O)O)CC(C)(C)NC2=O` came in with a T1/2 in series [2] of 18 h.

In series [1], `Cc1c(Cc2ccccc2-c2cccc3ccccc23)c2c(n1CC(=O)O)CCNC2=O` yielded an IC50 of 480 nM.
